# In PMC6597546, “Identification of a potent benzoxaborole drug candidate for treating cryptosporidiosis” (Nature Communications, 2019):
# Where “and” joins values, the source holds several entries; their conditions need not be identical. Identical values can stand only once. Like-named read-outs stand apart in the source and are kept apart here.
# Assays:
# [1] = test system: C. parvum (University of Arizona Iowa isolate); assay type: in vivo, C57BL/6 IFN-γ−/− mice
# Description: Interferon gamma (IFN-γ) knockout mice were used to model acute Cryptosporidium infection. All IFN-γ knockout mouse studies were performed in compliance with animal care guidelines and were approved by the Explora BioLabs (San Diego, CA) Institutional Animal Care and Use Committee. Four-week-old female C57BL/6 IFN-γ^−/− mice with normal flora were purchased from The Jackson laboratory and acclimated for 3 days prior to infection by oral gavage with ∼10^6 C. parvum Iowa isolate oocysts (Sterling Laboratory, University of Arizona) suspended in sterile distilled water. At the indicated times following infection, mice were treated with compound vehicle alone, clofazimine (positive control), or once daily AN7973 at the indicated doses. Fecal parasite shedding was measured by isolating oocysts using sucrose gradient centrifugation. Sheather’s sucrose solution was freshly prepared by dissolving 156.25 g sucrose and 2.5 mL phenol in 100 mL water. Two sucrose solutions were prepared: (A) specific gravity of 1.103 (33% Sheather’s and 0.1% Tween 80 in PBS) and (B) specific gravity of 1.064 (20% Sheather’s and 0.1% Tween 80 in PBS). In a 2 mL microfuge tube, a gradient was prepared by laying 0.75 mL of solution A, then carefully laying 0.75 mL of solution B, slowly as to prevent mixing of the two layers. Fecal pellets were removed from storage, and homogenized by vortexing and pipetting. 0.2 mL fecal homogenate was overlaid on top of gradient in each microfuge tube. Oocysts were floated from feces by centrifugation at 1000 × g for 20 min and collected with a pipet tip from the 1.064/1.103 specific gravity interface between solutions A and B. Oocysts were rinsed once in cold PBS, pelleted by centrifugation at 15,000 × g for 10 min, and resuspended in PBS. Isolated oocysts were then stained with a fluorescein isothiocyanate-conjugated mouse anti-Cryptosporidium antibody (Bio-Rad catalog# 2402-3007 F; 0.25 µg per sample) and quantified using a Guava EasyCyte flow cytometer and CytoSoft data acquisition software (version 5.3; Guava Technologies, Inc.). Oocysts per milliliter of sample were normalized to counts per milligram of feces.
# [2] = test system: C. parvum (Bunch Grass Farms Iowa isolate); design: method as in PMID 29339392; conditions: cited from earlier work
compound,measurement,setting,value
"CC(C)/N=c1\cc2n(-c3ccc(Cl)cc3)c3ccccc3nc-2cc1Nc1ccc(Cl)cc1 [Clofazimine, clofazimine, reference compound]","fecal oocyst shedding, individual mice","[1]; 10 mg/kg QD from day 4, day p.i. 14",15 (2×) and 18 and 16
same,"fecal oocyst shedding, individual mice","[1]; 25 mg/kg QD from day 4, day p.i. 8",10 and 8 (2×) and 9
same,efficacy against Cryptosporidium in the NSG mouse,[2],lacks efficacy
